Results reported in US9073882B2, “Inhibitors of the renal outer medullary potassium channel” (Merck Sharp & Dohme Corp., priority 2010, dated 2015).
pIC50: −log10 of the molar value.

biological target: hROMK1 (Kir1.1) (Homo sapiens (Human), UniProt P48048); assay: ^86Rb^+ Efflux Assay; assay type: cell-based; details: CHO-DHFR- cells stably expressing hROMK1 (Kir1.1); value in parentheses at the end of each Example; read-out: IC50 in the ^86Rb^+ Efflux Assay
Sequence (P48048 whole entry): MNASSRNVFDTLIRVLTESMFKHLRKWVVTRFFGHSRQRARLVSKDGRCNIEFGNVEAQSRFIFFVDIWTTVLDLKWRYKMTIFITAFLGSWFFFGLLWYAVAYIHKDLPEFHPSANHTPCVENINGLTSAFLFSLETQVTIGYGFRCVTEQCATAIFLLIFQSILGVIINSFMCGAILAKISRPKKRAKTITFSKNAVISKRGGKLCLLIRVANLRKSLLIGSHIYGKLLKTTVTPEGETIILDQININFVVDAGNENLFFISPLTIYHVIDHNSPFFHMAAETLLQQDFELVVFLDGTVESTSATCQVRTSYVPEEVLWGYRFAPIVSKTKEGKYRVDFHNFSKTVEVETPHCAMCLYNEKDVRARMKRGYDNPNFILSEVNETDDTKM

pIC50	SMILES
6.64	N#Cc1cc(F)c(CCN2CCN(CCc3ccc4c(c3)COC4=O)CC2)cc1F [Example 39, 2,5-Difluoro-4-[2-[4-[2-(1-oxo-3H-isobenzofuran-5-yl)ethyl]piperazin-1-yl]ethyl]benzonitrile]
6.04	O=C1OCc2cc(CCN3CCN(CCc4ccc(-n5cnnn5)nc4)CC3)ccc21 [Example 42, 5-[2-[4-[2-[6-(Tetrazol-1-yl)-3-pyridyl]ethyl]piperazin-1-yl]ethyl]-3H-isobenzofuran-1-one]
6.21	Cc1c(CCN2CCN(CCc3ccc(-n4cnnn4)nc3)CC2)ccc2c1COC2=O [Example 43, 4-Methyl-5-[2-[4-[2-[6-(tetrazol-1-yl)-3-pyridyl]ethyl]piperazin-1-yl]ethyl]-3H-isobenzofuran-1-one]
6.55	COc1cc(C(C)CN2CCN(CCc3ccc4c(c3)COC4=O)CC2)ccc1C#N (stereo not shown) [Example 44, 2-Methoxy-4-[1-methyl-2-[4-[2-(1-oxo-3H-isobenzofuran-5-yl)ethyl]piperazin-1-yl]ethyl]benzonitrile]
6.68	COc1cc(CC(C)N2CCN(CCc3ccc4c(c3)COC4=O)CC2)ccc1C#N (stereo not shown) [Example 48, 2-Methoxy-4-[2-[4-[2-(1-oxo-3H-isobenzofuran-5-yl)ethyl]piperazin-1-yl]propyl]benzonitrile]
6.80	Cc1c(CCN2CCN(CCc3ccc(C#N)c(OC(F)F)c3)CC2)ccc2c1COC2=O [Example 49, 2-(Difluoromethoxy)-4-[2-[4-[2-(4-methyl-1-oxo-3H-isobenzofuran-5-yl)ethyl]piperazin-1-yl]ethyl]benzonitrile]
6.19	COc1cc(CCN2CCN(CCc3ccc4c(c3)COC4=O)C(C(F)(F)F)C2)ccc1C#N (stereo not shown) [Example 51, 2-Methoxy-4-(2-{4-[2-(1-oxo-1,3-dihydro-2-benzofuran-5-yl)ethyl]-3-(trifluoromethyl)piperazin-1-yl}ethyl)benzonitrile]
7.17	COc1cc(CCN2CCN(CCc3ccc4c(c3)COC4=O)CC2)c(F)cc1C#N [Example 52, 5-Fluoro-2-methoxy-4-(2-{4-[2-(1-oxo-1,3-dihydro-2-benzofuran-5-yl)ethyl]piperazin-1-yl}ethyl)benzonitrile]
7.47	COc1cc(CCN2CCN(CCc3ccc4c(c3C)COC4=O)CC2)c(F)cc1C#N [Example 53, 5-Fluoro-2-methoxy-4-(2-{4-[2-(4-methyl-1-oxo-1,3-dihydro-2-benzofuran-5-yl)ethyl]piperazin-1-yl}ethyl)benzonitrile]
6.47	COc1cc(CCN2CCN(CCc3cc(OC)c(C#N)cc3F)CC2)c(F)cc1C#N [Example 54, 4,4′-(Piperazine-1,4-diyldiethane-2,1-diyl)bis(5-fluoro-2-methoxybenzonitrile)]
6.57	COc1cc(CCN2CCN(CCc3ccc4c(c3)COC4=O)CC2C(F)(F)F)ccc1C#N (stereo not shown) [Example 56, 2-Methoxy-4-(2-{4-[2-(1-oxo-1,3-dihydro-2-benzofuran-5-yl)ethyl]-2-(trifluoromethyl)piperazin-1-yl}ethyl)benzonitrile]
7.01	COc1cc(CCN2CCN(CCc3ccc4c(c3)CC(C)OC4=O)CC2)ccc1C#N (stereo not shown) [Example 57, 2-Methoxy-4-(2-{4-[2-(3-methyl-1-oxo-3,4-dihydro-1H-isochromen-6-yl)ethyl]piperazin-1-yl}ethyl)benzonitrile]
7.12	Cc1c(CCN2CCN(CCc3ccc4c(c3C)COC4=O)CC2)ccc2c1COC2=O [Example 59, 5,5′-(Piperazine-1,4-diyldiethane-2,1-diyl)bis(4-methyl-2-benzofuran-1(3H)-one)]
7.03	COc1cc(CCN2CCN(CCc3ccc4c(c3)COC4=O)CC2)c(Cl)cc1C#N [Example 61, 5-Chloro-2-methoxy-4-(2-{4-[2-(1-oxo-1,3-dihydro-2-benzofuran-5-yl)ethyl]piperazin-1-yl}ethyl)benzonitrile]
6.82	N#Cc1ccc(CCN2CCN(CCc3ccc4c(c3)COC4=O)CC2)cc1OC(F)F [Example 63, 2-(Difluoromethoxy)-4-(2-{4-[2-(1-oxo-1,3-dihydro-2-benzofuran-5-yl)ethyl]piperazin-1-yl}ethyl)benzonitrile]
7.30	N#Cc1ccc2c(c1)CCC(N1CCN(CCc3ccc4c(c3)COC4=O)CC1)C2 (stereo not shown) [Example 66, 6-{4-[2-(1-Oxo-1,3-dihydro-2-benzofuran-5-yl)ethyl]piperazin-1-yl}-5,6,7,8-tetrahydronaphthalene-2-carbonitrile]
6.70	Cc1c(CCN2CCN(CCc3ccc(C#N)c(OC(F)(F)F)c3)CC2)ccc2c1COC2=O [Example 69, 2-Trifluoromethoxy-4-(2-{4-[2-(4-methyl-1-oxo-1,3-dihydro-2-benzofuran-5-yl)ethyl]piperazin-1-yl}ethyl)benzonitrile]
7.46	Cc1c(CCN2CCN(CCc3ccc(C#N)c(Cl)c3)CC2)ccc2c1COC2=O [Example 71, 2-Chloro-4-(2-{4-[2-(4-methyl-1-oxo-1,3-dihydro-2-benzofuran-5-yl)ethyl]piperazin-1-yl}ethyl)benzonitrile]
7.04	COc1c(C#N)ccc(CCN2CCN(CCc3ccc4c(c3)COC4=O)CC2)c1F [Example 72, 3-Fluoro-2-methoxy-4-(2-{4-[2-(1-oxo-1,3-dihydro-2-benzofuran-5-yl)ethyl]piperazin-1-yl}ethyl)benzonitrile]
7.04	COc1c(C#N)ccc(CCN2CCN(CCc3ccc4c(c3C)COC4=O)CC2)c1F [Example 73, 3-Fluoro-2-methoxy-4-(2-{4-[2-(4-methyl-1-oxo-1,3-dihydro-2-benzofuran-5-yl)ethyl]piperazin-1-yl}ethyl)benzonitrile]
6.80	Cc1c(CCN2CCN(CCc3ccc(C#N)c4ccccc34)CC2)ccc2c1COC2=O [Example 74, 4-(2-{4-[2-(4-Methyl-1-oxo-1,3-dihydro-2-benzofuran-5-yl)ethyl]piperazin-1-yl}ethyl)naphthalene-1-carbonitrile]
6.64	Cc1c(CCN2CCN(CCc3c(F)cc(C#N)c(F)c3F)CC2)ccc2c1COC2=O [Example 75, 2,3,5-Trifluoro-4-(2-{4-[2-(4-methyl-1-oxo-1,3-dihydro-2-benzofuran-5-yl)ethyl]piperazin-1-yl}ethyl)benzonitrile]
7.13	CCOc1cc(CCN2CCN(CCc3ccc4c(c3C)COC4=O)CC2)ccc1C#N [Example 77, 2-Ethoxy-4-(2-{4-[2-(4-methyl-1-oxo-1,3-dihydro-2-benzofuran-5-yl)ethyl]piperazin-1-yl}ethyl)benzonitrile]
7.12	N#Cc1cc(Cl)c(CCN2CCN(CCc3ccc4c(c3)COC4=O)CC2)cc1F [Example 78, 5-Chloro-2-fluoro-4-(2-{4-[2-(1-oxo-1,3-dihydro-2-benzofuran-5-yl)ethyl]piperazin-1-yl}ethyl)benzonitrile]
7.32	Cc1c(CCN2CCN(CCc3cc(F)c(C#N)cc3Cl)CC2)ccc2c1COC2=O [Example 79, 5-Chloro-2-fluoro-4-(2-{4-[2-(4-methyl-1-oxo-1,3-dihydro-2-benzofuran-5-yl)ethyl]piperazin-1-yl}ethyl)benzonitrile]
7.15	COc1cc(CCN2CCN(CCc3ccc4c(c3C)COC4=O)CC2)c(Cl)cc1C#N [Example 80, 5-Chloro-2-methoxy-4-(2-{4-[2-(4-methyl-1-oxo-1,3-dihydro-2-benzofuran-5-yl)ethyl]piperazin-1-yl}ethyl)benzonitrile]

same assay, conditions: Table 1; CHO-DHFR- cells stably expressing hROMK1 (Kir1.1); read-out: ^86Rb^+ Efflux Assay IC50

pIC50	SMILES
6.21	Cc1c(CCN2CCN(CCc3ccc(-n4cnnn4)nc3)CC2)ccc2c1COC2=O [Example 43, 4-Methyl-5-[2-[4-[2-[6-(tetrazol-1-yl)-3-pyridyl]ethyl]piperazin-1-yl]ethyl]-3H-isobenzofuran-1-one]
6.57	COc1cc(CCN2CCN(CCc3ccc4c(c3)COC4=O)CC2C(F)(F)F)ccc1C#N (stereo not shown) [Example 56, 2-Methoxy-4-(2-{4-[2-(1-oxo-1,3-dihydro-2-benzofuran-5-yl)ethyl]-2-(trifluoromethyl)piperazin-1-yl}ethyl)benzonitrile]
7.01	COc1cc(CCN2CCN(CCc3ccc4c(c3)CC(C)OC4=O)CC2)ccc1C#N (stereo not shown) [Example 57, 2-Methoxy-4-(2-{4-[2-(3-methyl-1-oxo-3,4-dihydro-1H-isochromen-6-yl)ethyl]piperazin-1-yl}ethyl)benzonitrile]
7.12	Cc1c(CCN2CCN(CCc3ccc4c(c3C)COC4=O)CC2)ccc2c1COC2=O [Example 59, 5,5′-(Piperazine-1,4-diyldiethane-2,1-diyl)bis(4-methyl-2-benzofuran-1(3H)-one)]
6.80	Cc1c(CCN2CCN(CCc3ccc(C#N)c4ccccc34)CC2)ccc2c1COC2=O [Example 74, 4-(2-{4-[2-(4-Methyl-1-oxo-1,3-dihydro-2-benzofuran-5-yl)ethyl]piperazin-1-yl}ethyl)naphthalene-1-carbonitrile]
